Data from US20100092402A1, “TREATMENT OF RESPIRATORY DISEASE” (Mucokinetica Ltd., priority 2007, published 2010).
Where two headings read alike, the source gives them in different places.

Legend:
[1] = target: T1, ENaC (Homo sapiens, UniProt P37088+P51168+P51170); conditions: same range as 50% to 70% of amiloride inhibition; Bridges et al. 2001; cited from earlier work
T1 construct: Treatment of airway epithelial cells with BAY 39-9437 results in reduction of ENaC activity; host or cells: airway epithelial cells (Bridges et al 2001)
T1 sequence (P37088 1-669): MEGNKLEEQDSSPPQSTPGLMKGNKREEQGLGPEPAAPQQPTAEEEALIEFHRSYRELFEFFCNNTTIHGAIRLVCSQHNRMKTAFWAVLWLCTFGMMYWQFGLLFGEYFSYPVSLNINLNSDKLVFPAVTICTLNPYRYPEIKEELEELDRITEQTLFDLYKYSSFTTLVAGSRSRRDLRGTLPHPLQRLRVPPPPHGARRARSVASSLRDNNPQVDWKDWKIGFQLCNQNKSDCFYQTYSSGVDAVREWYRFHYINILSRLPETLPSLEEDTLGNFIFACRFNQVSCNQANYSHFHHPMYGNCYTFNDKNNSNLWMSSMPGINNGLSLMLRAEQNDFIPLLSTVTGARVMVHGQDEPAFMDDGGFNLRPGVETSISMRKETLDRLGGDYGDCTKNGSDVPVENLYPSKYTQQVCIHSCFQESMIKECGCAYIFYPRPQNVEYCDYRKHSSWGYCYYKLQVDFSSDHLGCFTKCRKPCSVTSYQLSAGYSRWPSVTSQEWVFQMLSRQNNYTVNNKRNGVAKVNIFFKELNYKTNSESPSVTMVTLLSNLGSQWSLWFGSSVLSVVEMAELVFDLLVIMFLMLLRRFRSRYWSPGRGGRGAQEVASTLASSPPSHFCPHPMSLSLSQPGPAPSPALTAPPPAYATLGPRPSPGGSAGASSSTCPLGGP
T1 sequence (P51168 1-640): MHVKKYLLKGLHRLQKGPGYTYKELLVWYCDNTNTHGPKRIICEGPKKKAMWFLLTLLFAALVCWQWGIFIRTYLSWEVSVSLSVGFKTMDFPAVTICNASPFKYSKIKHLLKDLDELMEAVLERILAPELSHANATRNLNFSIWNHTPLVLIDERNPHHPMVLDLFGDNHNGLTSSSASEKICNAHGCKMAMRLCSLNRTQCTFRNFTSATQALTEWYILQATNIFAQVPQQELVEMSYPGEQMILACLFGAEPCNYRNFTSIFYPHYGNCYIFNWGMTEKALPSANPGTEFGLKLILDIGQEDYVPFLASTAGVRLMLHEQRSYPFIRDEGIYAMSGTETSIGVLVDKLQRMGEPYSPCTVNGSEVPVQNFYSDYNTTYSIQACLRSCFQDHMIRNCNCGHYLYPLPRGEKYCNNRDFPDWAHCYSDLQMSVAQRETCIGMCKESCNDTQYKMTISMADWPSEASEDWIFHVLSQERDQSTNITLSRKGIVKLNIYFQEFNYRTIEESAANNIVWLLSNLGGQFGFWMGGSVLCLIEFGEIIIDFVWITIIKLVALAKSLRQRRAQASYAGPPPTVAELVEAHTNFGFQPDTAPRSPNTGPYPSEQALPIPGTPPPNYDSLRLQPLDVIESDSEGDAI
T1 sequence (P51170 1-649): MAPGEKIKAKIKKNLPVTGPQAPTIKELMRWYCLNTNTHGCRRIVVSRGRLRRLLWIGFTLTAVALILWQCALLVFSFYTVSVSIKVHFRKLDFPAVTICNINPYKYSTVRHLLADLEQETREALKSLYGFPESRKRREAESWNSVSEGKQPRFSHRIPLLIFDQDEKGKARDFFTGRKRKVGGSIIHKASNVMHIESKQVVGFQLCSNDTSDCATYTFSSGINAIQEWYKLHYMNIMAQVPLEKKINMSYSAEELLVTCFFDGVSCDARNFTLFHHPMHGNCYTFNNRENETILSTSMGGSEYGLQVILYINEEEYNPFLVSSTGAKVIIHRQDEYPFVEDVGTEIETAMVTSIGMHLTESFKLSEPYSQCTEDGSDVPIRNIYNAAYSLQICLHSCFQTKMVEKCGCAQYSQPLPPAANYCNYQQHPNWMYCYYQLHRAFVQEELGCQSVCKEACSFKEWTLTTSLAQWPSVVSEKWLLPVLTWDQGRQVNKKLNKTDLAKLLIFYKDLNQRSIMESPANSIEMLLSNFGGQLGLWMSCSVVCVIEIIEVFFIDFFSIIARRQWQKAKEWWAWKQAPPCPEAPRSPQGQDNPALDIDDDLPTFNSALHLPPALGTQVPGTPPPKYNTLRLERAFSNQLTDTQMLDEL

[2] = tested on: amiloride-sensitive (sodium-dependent) component of nasal PD; assay: Nasal PD measurement during perfusion of human nasal epithelium; type: in vivo; conditions: perfusion with 10^−5 M-amiloride
Protocol: The method of measurement of nasal PD was an adaptation of that described by Standaert et al. (2004).
Ringer/HEPES buffer solution was prepared containing 148 mM-NaCl, 4.05 mM-KCl, 1.2 mM-CaCl2, 1.2 mM-MgCl2, 2.4 mM-K2HPO4, 0.4 mM-KH2PO4, 10 mM-HEPES, and adjusted to pH 7.4. Low chloride Ringer/HEPES buffer solution was prepared by replacing NaCl with 148 mM-Na gluconate in the Ringer solution components.
Agar electrodes were prepared with 3.7% agarose dissolved in Ringer/HEPES buffer pH 7.4. The reference electrode was placed and taped in contact with a small area on the forearm where the epidermis had been removed by gentle abrasion. A dual lumen nasal recording electrode was prepared using a lm length of soft plastic tubing 2.4 mm diameter, into which 1 mm diameter polythene tubing was inserted through the wall and along the lumen for 15 cm from one end. The 2.4 mm diameter tubing was filled with 3.7% agarose dissolved in Ringer/HEPES buffer pH 7.4. The 1 mm diameter tubing was used for perfusion of buffer solutions and drugs to the nasal epithelium. The ends of the agar electrodes were each placed in contact with a calomel half-cell in 3 M-KCl solution. Voltages were measured by connecting the calomel electrodes to a high impedance voltmeter (Keithley 617 programmable electrometer). Output from the voltmeter was recorded by connection to a Biopac MP100 data aquisition unit and PC running Acqknowledge III data acquisition software.
Nasal PD was recorded via the recording electrode placed in contact with the nasal epithelium approximately 4 cm inside the nostril. The nasal epithelium was perfused according to the following schedule and nasal PD was recorded continuously.
1. Ringer/HEPES buffer was perfused at 0.5 ml/min for 5 min, and starting baseline PD was recorded.
2. Perfusion was then switched to low chloride Ringer/HEPES buffer pH 7.4 for 30 min during which time initial hyperpolarisation of the epithelium occurred.
3. The nasal epithelium was then perfused with 10^−5 M-amiloride in low chloride Ringer/HEPES buffer pH 7.4 for 10 min. Measurement of the amiloride-sensitive (sodium-dependent) component of nasal PD was then made by measuring the difference between the average PD recorded over the 2 min before perfusion with amiloride and the average PD recorded in the period 4 to 6 min after perfusion with amiloride.
4. Amiloride was washed away from the nasal epithelium by perfusion with low chloride Ringer/HEPES buffer pH 7.4 for 30 min.
5. Steps 3 and 4 were then repeated twice more.
6. The nasal epithelium was then perfused with 3 μM 6-amidino-2-napthyl 4-guanidinobenzoate in low chloride Ringer/HEPES buffer pH 7.4 for 60 min.
7. Steps 3 and 4 were then repeated a further twice, followed by either a period of administration of amiloride (3 experiments), or a final repetition of both steps 3 and 4 (1 experiment).
Over the 5 h time course of each experiment nasal PD drifted and oscillated. […] Changes in nasal PD caused by perfusion of amiloride were calculated as the difference between the mean PD recorded in the 2 min period before perfusion with amiloride and the mean PD recorded in the plateau period 4 to 6 min after start of perfusion with amiloride. Within each experiment the change in nasal PD at each period of application of amiloride was expressed as a percentage of the maximum change observed in the experiment.

[3] = target: T2, epithelial amiloride-sensitive sodium channel (ENaC) (Homo sapiens, UniProt P37088+P51168+P51170); type: cell-based
T2 construct: Differentiated HBE cells grown to confluence at an air-liquid interface for 15 to 29 days were used; host or cells: primary human bronchial epithelial (HBE) cells, differentiated at air-liquid interface
Protocol: (§1) Human bronchial epithelial (HBE) cells were purchased from Cambrex Bioscience Ltd, UK., and were stored frozen in liquid nitrogen until required for use.
(§2) HBE cells were amplified by growing in secondary culture according to the suppliers' instructions. Cells were seeded at densities of between 3,000 to 4,000/cm^2 in plastic T-25 culture flasks in bronchial epithelial cell growth medium (BEGM) prepared from bronchial epithelial basal medium (BEBM, Cambrex, UK) supplemented with bovine pituitary extract, hydrocortisone, human epidermal growth factor, epinephrine, transferrin, insulin, retinoic acid, triiodothyronine, gentamicin, and amphotericin B. Cultures were maintained at 37° C. in 5% CO2 in a humidified incubator. Medium was changed every 1 to 3 days until cells were approximately 90% confluent. Cells were then passaged with trypsin EDTA according to the suppliers' instructions, and either used for further cell cultures, or cryopreserved in liquid nitrogen in BEGM containing 10% foetal bovine serum and 10% DMSO.
(§3) HBE cells were prepared for electrophysiology studies by growing as tertiary cultures on Snapwell (Corning) 0.4μ clear polyester membrane inserts 1.2 cm^2 coated with collagen IV (Sigma). Cells were seeded at approximately 10^5/cm^2 in 0.5 ml 1:1 DMEM (Cambrex, UK) BEGM containing bovine pituitary extract (50 μg/ml), hydrocortisone (0.5 μg/ml), human epidermal growth factor (0.5 ng/ml), epinephrine (0.5 μg/ml), transferrin (10 μg/ml), insulin (5 μg/ml), retinoic acid (50 nM), and gentamicin (50 μg/ml) (Danahay medium; Danahay et al. 2002). Snapwell inserts were mounted in 6-well plates with 3 ml Danahay medium in the wells, and grown at 37° C. in 5% CO2 in a humidified incubator. Medium was changed every 1 to 3 days. An apical air-liquid interface (ALI) was established as the cells achieved confluence (3 to 6 days) by removal of medium from the centre of the insert. Confluent differentiated bronchial epithelial cells were used for electrophysiology studies at between 15 and 29 days after establishing ALI.
(§4) Differentiated HBE cells grown to confluence at an air-liquid interface for 15 to 29 days were used to study substances for ability to achieve long duration down regulation of the epithelial amiloride-sensitive sodium channel (ENaC).
(§5) Step 1: Treatment with substance. For each group of cells treated with a substance, 30 μl of 100 times final concentration of substance was added to the 3 ml basolateral culture medium, mixed and 150 μl of the resultant basolateral fluid was transferred to the apical surface for 5 min. For non-treatment control groups of basolateral fluid with no added substance was transferred to the apical surface. After 5 min. equilibration the excess apical fluid was then transferred back to the basolateral side of the culture well.
(§6) Step 2: Variable period of incubation with the substance. Dependent on the individual experiment the cells were returned to the 37° C. incubator for periods of 0 min. to 120 min.
(§7) Step 3: Period of substance washout with fresh culture medium. For experiments to study the duration of a substance response the HBE cells on Snapwell inserts were washed with fresh culture medium (no added substance) at 37° C. and placed in fresh 6-well plates containing 3 ml fresh culture medium (no added substance) on the basolateral side. […] Step 3 was omitted in studies where the duration of the substance response was not investigated.
(§8) Step 4: Wash with Krebs-Ringer buffer and assembly in Ussing chambers. The Snapwell insert cultures of HBE cells were removed from the 6-well plates and washed with excess Krebs-Ringer buffer (120 mM-NaCl, 25 mM-NaHCO3, 3.3 mM-KH2PO4, 0.8 mM-K2HPO4, 1.2 mM-CaCl2, 1.2 mM-MgCl2, 10 mM-glucose) pH7.4 at 37° C. The inserts were then mounted in Ussing chambers (Snapwell diffusion chambers, Costar UK Ltd.). Each side of the chamber was filled with 5 ml Krebs-Ringer buffer and gassed continuously with 95% O2/5% CO2 at 37° C. […]

[4] = tested on: nasal epithelium; assay: Mucus host-defence responses during nasal perfusion; type: in vivo, human; conditions: perfusion with 10^−5 M in low chloride Ringer/HEPES buffer
From the text: Perfusion of the nasal epithelium with low chloride Ringer/HEPES buffer imposes a chemical gradient for chloride secretion, and therefore also provides a drive for fluid secretion.
Mucus host-defence episodes were scored 1 to 3 on the basis of the number of features and the magnitude of the responses observed. FIG. 10 reports the score of the episodes recorded, and indicates the time of their occurrence in the perfusion protocol.

[5] = target: T3, epithelial amiloride-sensitive sodium channel (ENaC) (Homo sapiens, UniProt P37088+P51168+P51170); type: cell-based; conditions: 1 μM or 100 μM, 90 min
T3 sequence (P37088 1-669): T1 sequence (P37088 1-669)
T3 sequence (P51168 1-640): T1 sequence (P51168 1-640)
T3 sequence (P51170 1-649): T1 sequence (P51170 1-649)
Protocol: as §1, §2, §3, §4, §5, §6, §7, §8

[6] = tested on: cortical collecting duct of the rabbit kidney; conditions: perfused; Muto et al. 1994; cited from earlier work

## aprotinin
[1]
  efficacy compared with high dose amiloride: same range

## N=C(N)NC(=O)c1nc(Cl)c(N)nc1N [amiloride]
[2]
  time at which partial depolarisation of nasal epithelium was observable: ≤ 2 min
[3]; 10 μM amiloride apical, HBE cells 24 d in culture, 21 d ALI, FIG. 1
  ΔIsc (amiloride addition): 9.2 μAmp
[3]; 10 μM-amiloride, apical surface
  time for short circuit current to fall to new plateau after application of amiloride: ≤ 2 min
[4]
  mucus host-defence responses: stimulated episodes of mucus host-defence responses

## N=C(N)c1ccc2cc(O)ccc2c1 [AN, 6-amidino-2-naphthol]
[5]; HBE 34 & 35 d, 28 & 29 d ALI (FIG. 8B)
  amiloride ΔIsc compared to control: not significantly different
[6]
  minimum effective concentration: 10^−4 M

## N=C(N)Nc1ccc(C(=O)O)cc1 [pGBA, p-guanidinobenzoic acid]
[5]; HBE 22 d, 17 d ALI (FIG. 8A)
  amiloride ΔIsc compared to control: not significantly different
[6]
  minimum effective concentration: 10^−5 M
